According to PMC3062711 (Biochimica et biophysica acta, 2010):

Biological target: human TRPA1 channel (hTRPA1) (Homo sapiens, UniProt O75762)
Assay: inside-out patch clamp recording, hTRPA1 expressed in HEK293T cells
Assay type: cell-based

Chain of human TRPA1 channel (hTRPA1) (O75762 whole entry): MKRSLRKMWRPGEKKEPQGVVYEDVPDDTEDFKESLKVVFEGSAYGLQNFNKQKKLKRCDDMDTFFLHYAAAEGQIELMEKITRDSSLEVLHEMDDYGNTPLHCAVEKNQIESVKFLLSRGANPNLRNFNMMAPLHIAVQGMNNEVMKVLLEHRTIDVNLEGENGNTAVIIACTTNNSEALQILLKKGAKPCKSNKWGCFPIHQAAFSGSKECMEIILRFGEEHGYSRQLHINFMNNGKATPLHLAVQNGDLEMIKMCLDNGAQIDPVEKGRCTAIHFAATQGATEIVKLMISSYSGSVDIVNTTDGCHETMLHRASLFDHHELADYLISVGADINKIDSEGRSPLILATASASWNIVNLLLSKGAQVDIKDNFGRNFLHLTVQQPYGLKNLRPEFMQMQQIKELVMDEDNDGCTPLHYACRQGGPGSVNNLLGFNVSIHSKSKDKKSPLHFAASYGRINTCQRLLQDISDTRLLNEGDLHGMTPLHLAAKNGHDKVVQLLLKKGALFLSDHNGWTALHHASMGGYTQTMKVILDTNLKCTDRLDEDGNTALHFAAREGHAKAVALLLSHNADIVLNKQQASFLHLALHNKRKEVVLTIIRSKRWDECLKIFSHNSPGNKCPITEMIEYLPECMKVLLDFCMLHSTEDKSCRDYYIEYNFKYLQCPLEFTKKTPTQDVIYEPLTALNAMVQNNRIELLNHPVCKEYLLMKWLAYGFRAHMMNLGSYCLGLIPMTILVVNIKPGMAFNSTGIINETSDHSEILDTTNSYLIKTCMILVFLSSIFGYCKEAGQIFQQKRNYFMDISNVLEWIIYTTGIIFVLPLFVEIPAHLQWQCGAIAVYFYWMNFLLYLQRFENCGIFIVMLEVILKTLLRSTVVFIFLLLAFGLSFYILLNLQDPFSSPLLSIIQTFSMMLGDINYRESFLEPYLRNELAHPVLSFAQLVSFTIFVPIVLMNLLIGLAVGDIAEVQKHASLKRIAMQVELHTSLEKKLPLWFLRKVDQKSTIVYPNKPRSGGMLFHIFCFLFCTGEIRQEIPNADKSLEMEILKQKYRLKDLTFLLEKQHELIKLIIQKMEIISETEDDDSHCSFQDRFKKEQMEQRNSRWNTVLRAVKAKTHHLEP

Ruthenium red [RR]
IC50: ~1800 nM
